In patent publication US20040110802A1, “Antibacterial benzoic acid derivatives” (priority 2002, published 2004):
Converted amounts (≈) assume the structure as drawn.

Test system: SAUR 9218
Assay: MIC Test Method, standard agar dilution
Format: cell-based
Settings: agar dilution, Mueller Hinton agar, incubated overnight at 35° C.; lowest concentration that inhibits visible growth; read-out: SAUR 9218 MIC
Outline: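 MIC (μg/ml) was read as the lowest drug level without visible growth of SAUR 9218 after overnight incubation at 35 °C. Inocula of about 10^4 to 10^5 cells per spot were applied to Mueller Hinton agar containing 2-fold serial compound dilutions.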

SMILES	MIC
Cn1c(C(=O)Nc2ccc(C#N)cc2C(=O)O)cc2cccc(NC(=O)N3CCOCC3)c21	8 µg/mL (≈ 17.9 µM)
N#Cc1ccc(NC(=O)c2noc3ccc(NS(=O)(=O)Cc4ccccc4)cc23)c(C(=O)O)c1	0.125 µg/mL (≈ 0.262 µM)
Cc1ccccc1-c1cc(C(=O)Nc2ccc(C#N)cc2C(=O)O)no1	0.25 µg/mL (≈ 0.72 µM)
COCCOCCCSc1ccc(C(=O)Nc2ccc(Br)cc2C(=O)O)cn1	0.5 µg/mL (≈ 1.07 µM)
CCCCn1c(C(=O)Nc2ccc(Br)cc2C(=O)O)cc2ccccc21	4 µg/mL (≈ 9.63 µM)
O=C(COc1ccccc1-c1cc(C(=O)Nc2ccc(O)cc2C(=O)O)no1)c1ccccc1	0.5 µg/mL (≈ 1.09 µM)
N#Cc1ccc(NC(=O)c2cc(-c3ccccc3OCC3C=CCCC3)on2)c(C(=O)O)c1 (centres unmarked)	2 µg/mL (≈ 4.51 µM)
N#Cc1ccc(NC(=O)c2cc3cccc(NC(=O)Cc4ccccc4C(F)(F)F)c3[nH]2)c(C(=O)O)c1	1 µg/mL (≈ 1.97 µM)
CC(=O)Nc1ccc2onc(C(=O)Nc3ccc(C#N)cc3C(=O)O)c2c1	2 µg/mL (≈ 5.49 µM)
N#Cc1ccc(NC(=O)c2cc3cccc(NS(=O)(=O)c4ccc(OC(F)(F)F)cc4)c3[nH]2)c(C(=O)O)c1	1 µg/mL (≈ 1.84 µM)
N#Cc1ccc(NC(=O)c2cc3cccc(NC(=O)Cc4ccc(-c5ccccc5)cc4)c3[nH]2)c(C(=O)O)c1	0.5 µg/mL (≈ 0.972 µM)
COCC(O)COc1cccc2cc(C(=O)Nc3ccc(C#N)cc3C(=O)O)n(C)c12 (centres unmarked)	0.5 µg/mL (≈ 1.18 µM)
N#Cc1ccc(NC(=O)c2ccc(N3CCOCC3)nc2)c(C(=O)O)c1	64 µg/mL (≈ 182 µM)
N#Cc1ccc(NC(=O)c2cc3cccc(NC(=O)Cc4ccc(Cl)cc4)c3[nH]2)c(C(=O)O)c1	0.25 µg/mL (≈ 0.529 µM)
CON=C1CCn2c(C(=O)Nc3ccc(C#N)cc3C(=O)O)cc3cccc1c32	1 µg/mL (≈ 2.57 µM)
Cc1ccsc1-c1cc(C(=O)Nc2ccc(C#N)cc2C(=O)O)no1	0.125 µg/mL (≈ 0.354 µM)
Cc1sc(C(=O)Nc2ccc(C#N)cc2C(=O)O)cc1S(=O)(=O)N1CCCCCCC1	8 µg/mL (≈ 17.3 µM)
COC(=O)CCCC(=O)Nc1cccc2cc(C(=O)Nc3ccc(C#N)cc3C(=O)O)[nH]c12	0.5 µg/mL (≈ 1.11 µM)
O=C(O)c1cc(Br)ccc1NC(=O)c1cc(OCc2ccccc2)cc[n+]1[O-]	32 µg/mL (≈ 72.2 µM)
Cn1c(C(=O)Nc2ccc(C#N)cc2C(=O)O)cc2cccc(OCC3CCCCO3)c21 (centres unmarked)	0.5 µg/mL (≈ 1.15 µM)
N#Cc1ccc(NC(=O)c2cc(CO)on2)c(C(=O)O)c1	8 µg/mL (≈ 27.9 µM)
O=C(O)c1cc(Br)ccc1NC(=O)c1ncccc1C(=O)c1ccccc1	> 128 µg/mL
N#Cc1ccc(NC(=O)c2noc3c2CN(C(=O)OCc2ccccc2)CC3)c(C(=O)O)c1	0.5 µg/mL (≈ 1.12 µM)

SMILES	MIC
O=C(Nc1ccc(Br)cc1C(=O)O)c1ncc(-c2ccccc2)o1	1 µg/mL (≈ 2.58 µM)
CCNc1ccc2onc(C(=O)Nc3ccc(C#N)cc3C(=O)O)c2c1	0.5 µg/mL (≈ 1.43 µM)
Cn1c(C(=O)Nc2ccc(C#N)cc2C(=O)O)cc2cccc(NC(=O)NCC3CCCO3)c21 (centres unmarked)	1 µg/mL (≈ 2.17 µM)
N#Cc1ccc(NC(=O)c2cncc(-c3cccc(C(F)(F)F)c3)c2)c(C(=O)O)c1	16 µg/mL (≈ 38.9 µM)
N#Cc1ccc(NC(=O)c2ccc(N3CCCCC3)nc2)c(C(=O)O)c1	8 µg/mL (≈ 22.8 µM)
CN(C)S(=O)(=O)c1ccc2onc(C(=O)Nc3ccc(C#N)cc3C(=O)O)c2c1	0.125 µg/mL (≈ 0.302 µM)
N#Cc1ccc(NC(=O)c2ccc(SCCCCO)nc2)c(C(=O)O)c1	2 µg/mL (≈ 5.38 µM)
CC(C)Sc1ccc(C(=O)Nc2ccc(C#N)cc2C(=O)O)cn1	0.25 µg/mL (≈ 0.732 µM)
Cn1c(C(=O)Nc2ccc(C#N)cc2C(=O)O)cc2ccc(NC(=O)c3ccc(OC(F)(F)F)cc3)cc21	2 µg/mL (≈ 3.83 µM)
CCCCN(CCO)S(=O)(=O)c1cc(C(=O)Nc2ccc(C#N)cc2C(=O)O)sc1C	32 µg/mL (≈ 68.7 µM)
Cc1cc(C(=O)Nc2ccc(C#N)cc2C(=O)O)c(C)o1	> 128 µg/mL
O=C(O)c1cc(Br)ccc1NC(=O)c1noc2ccc(S(=O)(=O)Nc3ccccc3)cc12	0.03 µg/mL (≈ 0.0581 µM)
N#Cc1ccc(NC(=O)c2cnc(CCc3ccccc3)cn2)c(C(=O)O)c1	16 µg/mL (≈ 43 µM)
COc1ccccc1-c1cc(C(=O)Nc2ccc(Br)cc2C(=O)O)no1	0.125 µg/mL (≈ 0.3 µM)
N#Cc1ccc(NC(=O)c2nsc3ccccc23)c(C(=O)O)c1	1 µg/mL (≈ 3.09 µM)
N#Cc1ccc(NC(=O)c2cc3cccc(NC(=O)CCc4ccccc4)c3[nH]2)c(C(=O)O)c1	0.5 µg/mL (≈ 1.11 µM)
CC(C)NC(=O)Nc1ccc2cc(C(=O)Nc3ccc(C#N)cc3C(=O)O)n(C)c2c1	0.5 µg/mL (≈ 1.19 µM)
N#Cc1ccc(NC(=O)c2cc3cccc4c3n2CC/C4=N\Oc2ccccc2)c(C(=O)O)c1	2 µg/mL (≈ 4.44 µM)
N#Cc1ccc(NC(=O)c2noc3ccc(-c4ccccc4F)cc23)c(C(=O)O)c1	0.125 µg/mL (≈ 0.311 µM)
O=C(Nc1ccc(Br)cc1C(=O)O)c1csc(S(=O)(=O)N2CCN(c3cccc(C(F)(F)F)c3)CC2)c1	16 µg/mL (≈ 25.9 µM)
N#Cc1ccc(NC(=O)c2cc3cccc(NC(=O)c4ccccc4CCc4ccccc4)c3[nH]2)c(C(=O)O)c1	0.5 µg/mL (≈ 0.946 µM)
Cc1sc(C(=O)Nc2ccc(C#N)cc2C(=O)O)cc1S(=O)(=O)N(C)CCc1ccccc1	4 µg/mL (≈ 8.27 µM)
Cn1nc(C(=O)Nc2ccc(Br)cc2C(=O)O)cc1-c1ccccc1	32 µg/mL (≈ 80 µM)

SMILES	MIC
N#Cc1ccc(NC(=O)c2noc3ccc(N)cc23)c(C(=O)O)c1	0.5 µg/mL (≈ 1.55 µM)
COc1ccc(-c2cnc(C(=O)Nc3ccc(Br)cc3C(=O)O)o2)cc1	2 µg/mL (≈ 4.79 µM)
O=C(Nc1ccc(Br)cc1C(=O)O)c1ccoc1	> 128 µg/mL
N#Cc1ccc(NC(=O)c2noc3cc(NS(=O)(=O)c4ccccc4)ccc23)c(C(=O)O)c1	1 µg/mL (≈ 2.16 µM)
CCCCCCSc1cnc(C(=O)Nc2ccc(C#N)cc2C(=O)O)nc1	2 µg/mL (≈ 5.2 µM)
N#Cc1cccc(-c2cnc(C(=O)Nc3ccc(C#N)cc3C(=O)O)o2)c1	2 µg/mL (≈ 5.58 µM)
O=C(O)c1cc(Br)ccc1NC(=O)c1noc2ccc(S(=O)(=O)N3CCCC3)cc12	0.25 µg/mL (≈ 0.506 µM)
O=C(Nc1ccc(Br)cc1C(=O)O)c1cnc(SCc2ccccc2)cn1	0.125 µg/mL (≈ 0.281 µM)
CCCS(=O)(=O)Nc1cccc2cc(C(=O)Nc3ccc(C#N)cc3C(=O)O)n(C)c12	0.5 µg/mL (≈ 1.14 µM)
N#Cc1ccc(NC(=O)c2cc(CCCc3ccccc3)on2)c(C(=O)O)c1	0.125 µg/mL (≈ 0.333 µM)
Cn1c(C(=O)Nc2ccc(C#N)cc2C(=O)O)cc2cccc(-c3ccccc3C(F)(F)F)c21	0.06 µg/mL (≈ 0.129 µM)
Cc1cc(NS(=O)(=O)c2ccc(-c3cc(C(=O)Nc4ccc(Br)cc4C(=O)O)no3)cc2)no1	32 µg/mL (≈ 58.5 µM)
N#Cc1ccc(NC(=O)c2cccc(Br)n2)c(C(=O)O)c1	32 µg/mL (≈ 92.4 µM)
N#Cc1ccc(NC(=O)c2noc3ccc(NCC4CC4)cc23)c(C(=O)O)c1	0.5 µg/mL (≈ 1.33 µM)
CC(C)(C)N1C(=O)c2ccc(C(=O)Nc3ccc(Br)cc3C(=O)O)cc2C1=O	4 µg/mL (≈ 8.98 µM)
CC(=O)Nc1ccccc1-c1ccc2onc(C(=O)Nc3ccc(C#N)cc3C(=O)O)c2c1	0.5 µg/mL (≈ 1.14 µM)
CN(C)S(=O)(=O)Nc1ccc2onc(C(=O)Nc3ccc(C#N)cc3C(=O)O)c2c1	0.5 µg/mL (≈ 1.16 µM)
Cc1ccc(C(=O)Nc2ccc(Br)cc2C(=O)O)s1	64 µg/mL (≈ 188 µM)
CCC(C)Sc1cnc(C(=O)Nc2ccc(C#N)cc2C(=O)O)cn1 (centres unmarked)	0.25 µg/mL (≈ 0.701 µM)
Cn1nc(-c2c(F)cccc2F)cc1C(=O)Nc1ccc(Br)cc1C(=O)O	128 µg/mL (≈ 293 µM)
N#Cc1ccc(NC(=O)c2cc3cccc(NC(=O)C45CC6CC(CC(C6)C4)C5)c3[nH]2)c(C(=O)O)c1	16 µg/mL (≈ 33.2 µM)
CCCCCCC(=O)Nc1cccc2cc(C(=O)Nc3ccc(C#N)cc3C(=O)O)[nH]c12	0.5 µg/mL (≈ 1.16 µM)
Cl.N#Cc1ccc(NC(=O)c2ccc(SCc3ccccc3)nc2)c(C(=O)O)c1	0.25 µg/mL

SMILES	MIC
N#Cc1ccc(NC(=O)c2noc3cc(-c4ccc([N+](=O)[O-])cc4C(F)(F)F)c([N+](=O)[O-])cc23)c(C(=O)O)c1	0.03 µg/mL (≈ 0.0554 µM)
N#Cc1ccc(NC(=O)c2ncc(-c3ccco3)o2)c(C(=O)O)c1	2 µg/mL (≈ 6.19 µM)
O=C(Nc1ccc(Br)cc1C(=O)O)c1ccc2c(c1)S(=O)(=O)c1ccccc1C2=O	16 µg/mL (≈ 32.9 µM)
O=C(Nc1ccc(Br)cc1C(=O)O)c1ccc2ccccc2n1	8 µg/mL (≈ 21.6 µM)
N#Cc1ccc(NC(=O)c2cc3cccn3cn2)c(C(=O)O)c1	32 µg/mL (≈ 104 µM)
COc1ccc(-c2cnc(C(=O)Nc3ccc(C#N)cc3C(=O)O)cn2)cn1	> 128 µg/mL
CN(C)S(=O)(=O)c1ccc2onc(C(=O)Nc3ccc(Br)cc3C(=O)O)c2c1	0.25 µg/mL (≈ 0.534 µM)
Cn1cc(C(=O)Nc2ccc(C#N)cc2C(=O)O)c2ccccc21	16 µg/mL (≈ 50.1 µM)
O=C(Nc1ccc(Br)cc1C(=O)O)c1cnc2ccccc2n1	8 µg/mL (≈ 21.5 µM)
N#Cc1ccc(NC(=O)c2ccc(SC3CCCCC3)nc2)c(C(=O)O)c1	0.5 µg/mL (≈ 1.31 µM)
N#Cc1ccc(NC(=O)c2cncc(-c3ccc(C(F)(F)F)cc3)c2)c(C(=O)O)c1	> 128 µg/mL
N#Cc1ccc(NC(=O)c2noc3ccc(NC(=O)c4ccccc4)cc23)c(C(=O)O)c1	1 µg/mL (≈ 2.35 µM)
N#Cc1ccc(NC(=O)c2noc3ccc(S(=O)(=O)N4CCCC4)cc23)c(C(=O)O)c1	0.06 µg/mL (≈ 0.136 µM)
N#Cc1cccc(C(=O)Nc2cccc3cc(C(=O)Nc4ccc(C#N)cc4C(=O)O)[nH]c23)c1	1 µg/mL (≈ 2.23 µM)
CC(=O)OC(C(=O)Nc1cccc2cc(C(=O)Nc3ccc(C#N)cc3C(=O)O)[nH]c12)c1ccccc1 (centres unmarked)	1 µg/mL (≈ 2.01 µM)
CCCCCCCSc1ccc(C(=O)Nc2ccc(Br)cc2C(=O)O)nn1	0.06 µg/mL (≈ 0.133 µM)
CCOc1nc(SCc2ccccc2)ncc1C(=O)Nc1ccc(C#N)cc1C(=O)O	8 µg/mL (≈ 18.4 µM)
Cc1sc(C(=O)Nc2ccc(C#N)cc2C(=O)O)cc1S(=O)(=O)N1CCC(C)CC1	8 µg/mL (≈ 17.9 µM)
N#Cc1ccc(NC(=O)c2cc(-c3ccccc3OC3CCOC3)on2)c(C(=O)O)c1 (centres unmarked)	0.25 µg/mL (≈ 0.596 µM)
CC(=O)Nc1ccc(-c2cc3onc(C(=O)Nc4ccc(C#N)cc4C(=O)O)c3cc2NC(C)=O)c(C(F)(F)F)c1	0.03 µg/mL (≈ 0.0531 µM)
